Reference: patent publication US12077503B2, “Substituted cyclic amides and their use as herbicides” (FMC CORPORATION, priority 2015, dated 2024)

Experiments:
Type in all cases: in vivo
[1] = test system: velvetleaf (Abutilon theophrasti); test: Test G Pre-Emergence Protocol; details: Abutilon theophrasti, pre-emergence, 312 h, evaluated after 13 days
Outline: (§1)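 Pots of seeds in standard soil were grown for one day in a glasshouse (24/16 °C day/night, 14 h light, 65% humidity), then sprayed with compound in acetone/water 50:50 with 0.5% Tween 20 at 15.625, 62.5 or 250 g/ha. Damage was scored after 13 days on a 0 (none) to 100 (total) scale.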

[2] = test system: ivy-leaved morning glory (Ipomoea hederacea); test: Test G Pre-Emergence Protocol; details: Ipomoea, pre-emergence, 312 h, evaluated after 13 days
Outline: as §1

[3] = test system: giant foxtail (Setaria faberi); test: Test G Pre-Emergence Protocol; details: Setaria faberi, pre-emergence, 312 h, evaluated after 13 days
Outline: as §1

[4] = test system: corn (Zea mays); test: Test G Pre-Emergence Protocol; details: Zea mays, pre-emergence, 312 h, evaluated after 13 days
Outline: as §1

[5] = test system: barnyardgrass (Echinochloa crus-galli); test: Test G Pre-Emergence Protocol; details: Echinochloa crus-galli, pre-emergence, 312 h, evaluated after 13 days
Outline: as §1

[6] = test system: redroot pigweed (Amaranthus retroflexus); test: Test G Pre-Emergence Protocol; details: Amaranthus retroflexus, pre-emergence, 312 h, evaluated after 13 days
Outline: as §1

[7] = test system: velvetleaf (Abutilon theophrasti); test: Test G Post-Emergence Protocol; details: Abutilon theophrasti, post-emergence, 312 h, read-out: Velvetleaf damage rating
Outline: (§2)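 A glasshouse post-emergence test: 8-day-old plants sprayed at 15.625, 62.5 or 250 g/ha, then grown at 24/16 °C day/night with 14 h light and 65% humidity. Damage rated 13 days later, 0–100.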

[8] = test system: ivy-leaved morning glory (Ipomoea hederacea); test: Test G Post-Emergence Protocol; details: Ipomoea, post-emergence, 312 h, read-out: Morningglory, Ivy-leaved damage rating
Outline: as §2

[9] = test system: giant foxtail (Setaria faberi); test: Test G Post-Emergence Protocol; details: Setaria faberi, post-emergence, 312 h, read-out: Foxtail, Giant damage rating
Outline: as §2

[10] = test system: corn (Zea mays); test: Test G Post-Emergence Protocol; details: Zea mays, post-emergence, 312 h, read-out: Corn damage rating
Outline: as §2

[11] = test system: barnyardgrass (Echinochloa crus-galli); test: Test G Post-Emergence Protocol; details: Echinochloa crus-galli, post-emergence, 312 h, read-out: Barnyardgrass damage rating
Outline: as §2

[12] = test system: redroot pigweed (Amaranthus retroflexus); test: Test G Post-Emergence Protocol; details: Amaranthus retroflexus, post-emergence, 312 h, read-out: Pigweed, Redroot damage rating
Outline: as §2

[13] = 15.625 g ai/ha, evaluated after 13 days (100=total damage to plant; 0=no damage to plant)
[14] = 62.5 g ai/ha, evaluated after 13 days, 100=total damage to plant, 0=no damage to plant
[15] = 250 g ai/ha, evaluated after 13 days, 100=total damage to plant, 0=no damage to plant

CN1C[C@@H](c2ccc(C(F)(F)F)cc2)[C@H](C(=O)Nc2cnc(Cl)cn2)C1=O (racemic) [Compound 1649]
40%: pest or weed control at 250 g/ha [12, 15]
60%: pest or weed control at 250 g/ha [9, 15]
0%: pest or weed control at 15.625 g/ha ([1]; 15.625 g ai/ha, read-out: Velvetleaf damage rating (100=total damage to plant; 0=no damage to plant)) | pest or weed control at 62.5 g/ha ([1]; 62.5 g ai/ha, 100=total damage to plant, 0=no damage to plant, read-out: Velvetleaf damage rating) | pest or weed control at 250 g/ha ([1]; 250 g ai/ha, read-out: Velvetleaf damage rating (100=total damage to plant; 0=no damage to plant)) | pest or weed control at 15.625 g/ha ([2]; 15.625 g ai/ha, read-out: Morningglory, Ivy-leaved damage rating (100=total damage to plant; 0=no damage to plant)) | pest or weed control at 62.5 g/ha ([2]; 62.5 g ai/ha, 100=total damage to plant, 0=no damage to plant, read-out: Morningglory, Ivy-leaved damage rating) | pest or weed control at 250 g/ha ([2]; 250 g ai/ha, read-out: Morningglory, Ivy-leaved damage rating (100=total damage to plant; 0=no damage to plant)) | pest or weed control at 15.625 g/ha ([3]; 15.625 g ai/ha, read-out: Foxtail, Giant damage rating (100=total damage to plant; 0=no damage to plant)) | plant injury at 15.625 g/ha ([4]; 15.625 g ai/ha, read-out: Corn damage rating (100=total damage to plant; 0=no damage to plant)) | plant injury at 62.5 g/ha ([4]; 62.5 g ai/ha, 100=total damage to plant, 0=no damage to plant, read-out: Corn damage rating) | plant injury at 250 g/ha ([4]; 250 g ai/ha, read-out: Corn damage rating (100=total damage to plant; 0=no damage to plant)) | pest or weed control at 15.625 g/ha ([5]; 15.625 g ai/ha, read-out: Barnyardgrass damage rating (100=total damage to plant; 0=no damage to plant)) | pest or weed control at 62.5 g/ha ([5]; 62.5 g ai/ha, 100=total damage to plant, 0=no damage to plant, read-out: Barnyardgrass damage rating) | pest or weed control at 250 g/ha ([5]; 250 g ai/ha, read-out: Barnyardgrass damage rating (100=total damage to plant; 0=no damage to plant)) | pest or weed control at 15.625 g/ha ([6]; 15.625 g ai/ha, read-out: Pigweed, Redroot damage rating (100=total damage to plant; 0=no damage to plant)) | pest or weed control at 15.625 g/ha [7, 13] | pest or weed control at 62.5 g/ha [7, 14] | pest or weed control at 250 g/ha [7, 15] | pest or weed control at 15.625 g/ha [8, 13] | pest or weed control at 62.5 g/ha [8, 14] | pest or weed control at 250 g/ha [8, 15] | pest or weed control at 15.625 g/ha [9, 13] | pest or weed control at 62.5 g/ha [9, 14] | plant injury at 15.625 g/ha [10, 13] | plant injury at 62.5 g/ha [10, 14] | plant injury at 250 g/ha [10, 15] | pest or weed control at 15.625 g/ha [11, 13] | pest or weed control at 62.5 g/ha [11, 14] | pest or weed control at 15.625 g/ha [12, 13] | pest or weed control at 62.5 g/ha [12, 14]
20%: pest or weed control at 250 g/ha ([3]; 250 g ai/ha, read-out: Foxtail, Giant damage rating (100=total damage to plant; 0=no damage to plant)) | pest or weed control at 62.5 g/ha ([6]; 62.5 g ai/ha, 100=total damage to plant, 0=no damage to plant, read-out: Pigweed, Redroot damage rating) | pest or weed control at 250 g/ha ([6]; 250 g ai/ha, read-out: Pigweed, Redroot damage rating (100=total damage to plant; 0=no damage to plant)) | pest or weed control at 250 g/ha [11, 15]
10%: pest or weed control at 62.5 g/ha ([3]; 62.5 g ai/ha, 100=total damage to plant, 0=no damage to plant, read-out: Foxtail, Giant damage rating)
